The text below walks through data of patent US12570666B2, “Furoindazole derivatives” (Bayer Aktiengesellschaft, priority 2019, dated 2026).

SMILES strings stand for the structures.

The target in the assay is T1, human GPR84 receptor (Homo sapiens, UniProt Q9NQS5).
T1 construct: frozen aliquots prepared by acCELLerate; host or cells: CHO-K1
T1 sequence (Q9NQS5 whole entry): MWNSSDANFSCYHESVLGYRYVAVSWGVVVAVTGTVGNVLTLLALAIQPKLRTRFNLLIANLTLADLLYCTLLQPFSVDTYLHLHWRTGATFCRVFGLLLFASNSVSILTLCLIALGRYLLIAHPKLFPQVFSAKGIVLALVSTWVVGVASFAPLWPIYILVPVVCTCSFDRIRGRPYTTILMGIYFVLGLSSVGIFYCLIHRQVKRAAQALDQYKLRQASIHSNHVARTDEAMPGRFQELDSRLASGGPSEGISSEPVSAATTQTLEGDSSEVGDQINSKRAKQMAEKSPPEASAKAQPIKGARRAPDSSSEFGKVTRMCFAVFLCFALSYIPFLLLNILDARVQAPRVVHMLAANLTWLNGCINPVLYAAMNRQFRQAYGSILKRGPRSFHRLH
Nature of the assay: cAMP HTRF assay for identification of cellular GPR84 antagonists. Format: cell-based. The conditions noted are these: CHO-K1 cells stably expressing human GPR84; Forskolin + agonist 6-OAU (EC80); average or median values. In short, it runs like this: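 Forskolin-stimulated CHO-K1 cells stably expressing human GPR84, agonist-suppressed cAMP measured by HTRF (665/620 ratio) after lysis. Compounds at 11 concentrations, 20 μM to 0.07 nM, duplicate; normalized to DMSO and no-agonist controls; IC50 by 4-parameter fit.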
On the technique in general: Time-resolved FRET reads energy transfer from a long-lived donor to a nearby acceptor.
Regarding `Cc1ccc(Cn2cc3c(n2)-c2c(oc(C(=O)NCc4ccn(C)n4)c2C(F)(F)F)CC32CCC2)nc1` [Example 279, N-[(1-Methyl-1H-pyrazol-3-yl)methyl]-2′-[(5-methylpyridin-2-yl)methyl]-8′-(trifluormethyl)-2′,5′-dihydrospiro[cyclobutan-1,4′-furo[2,3-g]indazol]-7′-carboxamide], the IC50 is 53 nM.

For `O=C(NC[C@@H]1CCCO1)c1oc2c(c1C(F)(F)F)-c1nn(Cc3ccncc3)cc1C1(CCC1)C2` [Example 280, 2′-(Pyridin-4-ylmethyl)-N-[(2S)-tetrahydrofuran-2-ylmethyl]-8′-(trifluormethyl)-2′,5′-dihydrospiro[cyclobutan-1,4′-furo[2,3-g]indazol]-7′-carboxamide], the half-maximal inhibitory concentration (IC50) came out at 16 nM.

`O=C(NC[C@@H]1COCCO1)c1oc2c(c1C(F)(F)F)-c1nn(Cc3ccncc3)cc1C1(CCC1)C2` [Example 281, N-[(2R)-1,4-Dioxan-2-ylmethyl]-2′-(pyridin-4-ylmethyl)-8′-(trifluormethyl)-2′,5′-dihydrospiro[cyclobutan-1,4′-furo[2,3-g]indazol]-7′-carboxamide]: the half-maximal inhibitory concentration (IC50) came to 21 nM. For the molecule `O=C(NC[C@@H]1COCCO1)c1oc2c(c1C(F)(F)F)-c1nn(CC3CC3)cc1CC2` [Example 282, 2-(cyclopropylmethyl)-N-{[(2R)-1,4-dioxan-2-yl]methyl}-8-(trifluoromethyl)-4,5-dihydro-2H-furo[2,3-g]indazole-7-carboxamide], the IC50 is 10 nM. Turning to `COCC(=O)N1CCC(Cn2cc3c(n2)-c2c(oc(C(=O)NC[C@@H]4COCCO4)c2C(F)(F)F)CC3)CC1` [Example 283, N-{[(2R)-1,4-dioxan-2-yl]methyl}-2-{[1-(methoxyacetyl)piperidin-4-yl]methyl}-8-(trifluoromethyl)-4,5-dihydro-2H-furo[2,3-g]indazole-7-carboxamide], the IC50 was 139 nM. For `COCC(=O)N1CCC(Cn2cc3c(n2)-c2c(oc(C(=O)NC[C@@H]4CCCO4)c2C(F)(F)F)CC3)CC1` [Example 284, 2-{[1-(methoxyacetyl)piperidin-4-yl]methyl}-N-{[(2S)-oxolan-2-yl]methyl}-8-(trifluoromethyl)-4,5-dihydro-2H-furo[2,3-g]indazole-7-carboxamide] the value was 86 nM; for `O=C(NC[C@@H]1COCCO1)c1oc2c(c1C(F)(F)F)-c1nn(CC3CCN(C(=O)C4CC4)CC3)cc1CC2` [Example 285, 2-{[1-(cyclopropanecarbonyl)piperidin-4-yl]methyl}-N-{[(2R)-1,4-dioxan-2-yl]methyl}-8-(trifluoromethyl)-4,5-dihydro-2H-furo[2,3-g]indazole-7-carboxamide], 21 nM. For the molecule `O=C(NC[C@@H]1CCCO1)c1oc2c(c1C(F)(F)F)-c1nn(CC3CCN(C(=O)C4CC4)CC3)cc1CC2` [Example 286, 2-{[1-(cyclopropanecarbonyl)piperidin-4-yl]methyl}-N-{[(2S)-oxolan-2-yl]methyl}-8-(trifluoromethyl)-4,5-dihydro-2H-furo[2,3-g]indazole-7-carboxamide], the IC50 worked out at 11 nM.

Regarding `O=C(NC[C@@H]1COCCO1)c1oc2c(c1C(F)(F)F)-c1nn(CC3CCN(C(=O)c4ccccc4)CC3)cc1CC2` [Example 287, 2-[(1-benzoylpiperidin-4-yl)methyl]-N-{[(2R)-1,4-dioxan-2-yl]methyl}-8-(trifluoromethyl)-4,5-dihydro-2H-furo[2,3-g]indazole-7-carboxamide], the IC50 worked out at 10 nM. On to `O=C(NC[C@@H]1CCCO1)c1oc2c(c1C(F)(F)F)-c1nn(CC3CCN(C(=O)c4ccccc4)CC3)cc1CC2` [Example 288, 2-[(1-benzoylpiperidin-4-yl)methyl]-N-{[(2S)-oxolan-2-yl]methyl}-8-(trifluoromethyl)-4,5-dihydro-2H-furo[2,3-g]indazole-7-carboxamide], for which the IC50 was found to be 101 nM. Turning to `Cc1c(C(=O)NC[C@@H]2CCCO2)oc2c1-c1nn(C(C)(C)c3cccnc3)cc1CC2` [Example 289, 8-methyl-N-{[(2S)-oxolan-2-yl]methyl}-2-[2-(pyridin-3-yl)propan-2-yl]-4,5-dihydro-2H-furo[2,3-g]indazole-7-carboxamide], the IC50 stood at 801 nM. To `O=C(NC[C@H]1COCCO1)c1oc2c(c1C(F)(F)F)-c1nn(C[C@H]3COCCO3)cc1CC2` [Example 300, N,2-bis{[(2S)-1,4-dioxan-2-yl]methyl}-8-(trifluoromethyl)-4,5-dihydro-2H-furo[2,3-g]indazole-7-carboxamide] belongs 322 nM; to `O=C(NC[C@H]1COCCO1)c1oc2c(c1C(F)(F)F)-c1nn(C[C@@H]3COCCO3)cc1CC2` [Example 301, 2-{[(2R)-1,4-dioxan-2-yl]methyl}-N-{[(2S)-1,4-dioxan-2-yl]methyl}-8-(trifluoromethyl)-4,5-dihydro-2H-furo[2,3-g]indazole-7-carboxamide], 723 nM; to `CC(=O)N1CCC(Cn2cc3c(n2)-c2c(oc(C(=O)NC[C@@H]4CCCO4)c2C(F)(F)F)CC3)CC1` [Example 305, 2-[(1-acetylpiperidin-4-yl)methyl]-N-{[(2S)-oxolan-2-yl]methyl}-8-(trifluoromethyl)-4,5-dihydro-2H-furo[2,3-g]indazole-7-carboxamide], 16 nM. For `CC(=O)N1CCC(Cn2cc3c(n2)-c2c(oc(C(=O)NC[C@@H]4COCCO4)c2C(F)(F)F)CC3)CC1` [Example 306] the value was 27 nM; for `O=C(NC[C@@H]1CCCO1)c1oc2c(c1C(F)(F)F)-c1nn(CC3CCN(CC4CC4)CC3)cc1CC2` [Example 307, 2-{[1-(cyclopropylmethyl)piperidin-4-yl]methyl}-N-{[(2S)-oxolan-2-yl]methyl}-8-(trifluoromethyl)-4,5-dihydro-2H-furo[2,3-g]indazole-7-carboxamide], 62 nM.

Regarding `CN1CCC(Cn2cc3c(n2)-c2c(oc(C(=O)NC[C@@H]4CCCO4)c2C(F)(F)F)CC3)CC1` [Example 308, 2-[(1-methylpiperidin-4-yl)methyl]-N-{[(2S)-oxolan-2-yl]methyl}-8-(trifluoromethyl)-4,5-dihydro-2H-furo[2,3-g]indazole-7-carboxamide], the IC50 was 151 nM. To `CN1CCC(Cn2cc3c(n2)-c2c(oc(C(=O)NC[C@@H]4COCCO4)c2C(F)(F)F)CC3)CC1` [Example 309, N-{[(2R)-1,4-dioxan-2-yl]methyl}-2-[(1-methylpiperidin-4-yl)methyl]-8-(trifluoromethyl)-4,5-dihydro-2H-furo[2,3-g]indazole-7-carboxamide] belongs 154 nM; to `O=C(NC[C@@H]1COCCO1)c1oc2c(c1C(F)(F)F)-c1nn(CC3CCN(CC4CC4)CC3)cc1CC2` [Example 310, 2-{[1-(cyclopropylmethyl)piperidin-4-yl]methyl}-N-{[(2R)-1,4-dioxan-2-yl]methyl}-8-(trifluoromethyl)-4,5-dihydro-2H-furo[2,3-g]indazole-7-carboxamide], 197 nM; to `CCN1CCC(Cn2cc3c(n2)-c2c(oc(C(=O)NC[C@@H]4CCCO4)c2C(F)(F)F)CC3)CC1` [Example 311, 2-[(1-ethylpiperidin-4-yl)methyl]-N-{[(2S)-oxolan-2-yl]methyl}-8-(trifluoromethyl)-4,5-dihydro-2H-furo[2,3-g]indazole-7-carboxamide], 202 nM. To `CCN1CCC(Cn2cc3c(n2)-c2c(oc(C(=O)NC[C@@H]4COCCO4)c2C(F)(F)F)CC3)CC1` [Example 312, N-{[(2R)-1,4-dioxan-2-yl]methyl}-2-[(1-ethylpiperidin-4-yl)methyl]-8-(trifluoromethyl)-4,5-dihydro-2H-furo[2,3-g]indazole-7-carboxamide] belongs 760 nM. For `Cc1ccc(Cn2cc3c(n2)-c2c(oc(C(=O)N[C@@H]4CCOC4)c2C)CC3)nc1` [Example 318, 8-methyl-2-[(5-methylpyridin-2-yl)methyl]-N-[(3R)-oxolan-3-yl]-4,5-dihydro-2H-furo[2,3-g]indazole-7-carboxamide] the value was 8310 nM; for `Cc1c(C(=O)NC[C@@H]2CCCO2)oc2c1-c1nn(Cc3ccc(C#N)cn3)cc1CC2` [Example 319, 2-[(5-cyanopyridin-2-yl)methyl]-8-methyl-N-{[(2S)-oxolan-2-yl]methyl}-4,5-dihydro-2H-furo[2,3-g]indazole-7-carboxamide], 1120 nM. For `O=C(NC[C@@H]1COCCO1)c1oc2c(c1C(F)(F)F)-c1nn(C[C@H]3COCCO3)cc1CC2` [Example 320, N-{[(2R)-1,4-dioxan-2-yl]methyl}-2-{[(2S)-1,4-dioxan-2-yl]methyl}-8-(trifluoromethyl)-4,5-dihydro-2H-furo[2,3-g]indazole-7-carboxamide], the IC50 worked out at 12 nM. In the case of `O=C(NCc1cnc(C2CC2)cn1)c1oc2c(c1C(F)(F)F)-c1nn(C[C@H]3COCCO3)cc1CC2` [Example 321, N-[(5-cyclopropylpyrazin-2-yl)methyl]-2-{[(2S)-1,4-dioxan-2-yl]methyl}-8-(trifluoromethyl)-4,5-dihydro-2H-furo[2,3-g]indazole-7-carboxamide], the IC50 amounted to 3 nM.

By IC50 is commonly meant the concentration needed to halve the response being measured.
